Laboratory results: patent US11098077B2, “Locked nucleic acid cyclic dinucleotide compounds and uses thereof” (CHINOOK THERAPEUTICS, INC., priority 2016, dated 2021)

Tests used:
[1] = biological target: T1, hSTING HAQ allele in THP1-Dual cells (Homo sapiens, UniProt Q86WV6, G230A/H232R/R293Q/R71H); experiment: THP1-Dual IRF-3 inducible secreted luciferase reporter assay (type I interferon activation), without digitonin; format: cell-based
T1 construct: a human monocyte cell line containing the hSTING HAQ allele; host or cells: THP1-Dual cells
T1 sequence (Q86WV6 whole entry R71H/G230A/H232R/R293Q): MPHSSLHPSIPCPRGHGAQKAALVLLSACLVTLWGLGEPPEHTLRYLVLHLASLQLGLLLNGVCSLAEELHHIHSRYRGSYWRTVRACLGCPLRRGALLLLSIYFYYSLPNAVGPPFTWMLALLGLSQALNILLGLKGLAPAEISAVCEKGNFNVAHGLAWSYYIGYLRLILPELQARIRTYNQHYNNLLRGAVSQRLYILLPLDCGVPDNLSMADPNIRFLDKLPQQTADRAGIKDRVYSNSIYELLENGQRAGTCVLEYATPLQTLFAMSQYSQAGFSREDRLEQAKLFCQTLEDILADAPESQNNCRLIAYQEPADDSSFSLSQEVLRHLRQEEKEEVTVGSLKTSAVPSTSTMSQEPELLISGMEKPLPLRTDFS
Description: After 30 minutes, cells were washed and fresh RPMI media containing 10% FBS was added, and cells were incubated at 37° C. with 5% CO2 Cell culture supernatants from each sample were collected after overnight incubation, and 10 μL of the cell culture supernatants was added to 50 μL QUANTI-Luc reagent (Invivogen). Type I interferon activation was determined by measuring secreted luciferase levels on a SpectraMax M3 spectrophotometer (Molecular Devices).

[2] = tested on: serum TNF-α, IFN-γ, IL-6, MCP-1; experiment: Systemic serum pro-inflammatory cytokines by Mouse Inflammation Cytometric Bead Array; conditions: from serum cytokines six hours post-IT injection
Description: To assess the ability of the LNA-CDN molecules to promote anti-tumor immunity in aggressive murine tumor models, 6-8 week old female C57BL/6 mice (8 mice per group) were implanted with B16.SIY melanoma tumor cells (1×10^6 cells in 100 μL PBS). […] Treatments began when tumors reached a volume of approximately 100 mm^3, on day 9 post tumor implantation. The compounds were administered by a single subcutaneous injection into the center of the tumor (IT) using a 27 gauge needle. Tumors were measured twice weekly.

[3] = tested on: SIY-specific T cells in splenocytes; experiment: IFNγ ELISPOT of splenocytes stimulated with SIY peptide; format: in vivo, C57BL/6 mice; conditions: day 7 post IT injection
[4] = tested on: B16.SIY melanoma tumor cells; experiment: B16.SIY melanoma tumor model, intra-tumoral injection (Example 13); format: in vivo, C57BL/6 mice
Description: (§1) Tumors were measured twice weekly.

[5] = biological target: T2, hSTING REF allele (Homo sapiens, UniProt Q86WV6); experiment: Differential scanning fluorometry (DSF) binding to purified STING AA140-379, REF allele; conditions: for hSTING Tm Shift REF: DSF, ligand 1 mM, 1 mg/ml STING AA140-379; for Tm shift compared with 2′3′-RR-(A)(A) and 2′3′-(G)(A): for the REF allele
T2 construct: DNA encoding amino acids 140-379 (amino acid numbering corresponding to Swiss Prot Q86WV6); 6xHIS (N, cleaved yes); SUMO (N, cleaved yes); made in house; host or cells: Rosetta2 (DE3) E. coli
T2 sequence (Q86WV6 140-379): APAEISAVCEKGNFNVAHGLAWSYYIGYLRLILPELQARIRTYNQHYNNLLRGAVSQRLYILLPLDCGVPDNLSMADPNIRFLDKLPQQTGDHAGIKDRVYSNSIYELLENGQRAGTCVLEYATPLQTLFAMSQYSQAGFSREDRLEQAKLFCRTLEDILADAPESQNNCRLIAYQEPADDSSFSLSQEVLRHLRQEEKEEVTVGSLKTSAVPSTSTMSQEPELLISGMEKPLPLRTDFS
Description: (§2) Cells were grown in lysogeny broth at 37° C. until a […] absorbance of 0.6 was reached. […] Cell pellets were re-suspended on ice in a buffer containing 50 mM Tris hydrochloride (Tris-HCl) pH 7.5, 500 mM sodium chloride (NaCl), 20 mM imidazole, 10% glycerol, 1 mM tris(2-carboxyethyl)phosphine hydrochloride (TCEP) and protease inhibitor tablet (Pierce) (Buffer A). Cells were lysed using an S-450D sonifier (Emmerson industrial) on ice. […] Protein was aliquoted, flash frozen in liquid nitrogen and stored at −80° C. until use.
(§3) The protein is heated in the presence of a dye that binds to and fluoresces in hydrophobic environments. The protein is thermally denatured by heating resulting in increased dye binding to the unfolded protein and fluorescence. The temperature midpoint (Tm) of a proteins denaturation is established by calculating the half maximal value of the denaturation curve. The temperature midpoint of the protein in the presence of a ligand is directly related to the affinity of the ligand for the protein and therefore its ability to stabilize the protein at higher temperatures.
(§4) Each of wild type hSTING, HAQ allele hSTING and REF allele hSTING were used with each of the reference compounds and compounds of the invention as listed in Table 4. Samples were placed in hard shell PCR plate (Bio-Rad). The fluorescence as a function of temperature was recorded in a CFX 96 real time PCR machine (Bio-Rad) reading on the HEX channel, excitation 450-490, emission 560-580 nm. The temperature gradient was from 15-80° C. ramping 0.5° C. per 15 seconds and recording every 0.5° C. After subtraction of the background signal from a sample lacking protein and ligand. The midpoint temperature (Tm) was calculated by fitting the curves of the fluorescence as a function of temperature to a Boltzmann sigmoidal function (Graph Pad Prism).

[6] = biological target: T3, hSTING WT (Homo sapiens, UniProt Q86WV6, H232R); experiment: Differential scanning fluorometry (DSF) binding to purified STING AA140-379, wild type; conditions: for hSTING Tm Shift WT: DSF, ligand 1 mM, 1 mg/ml STING AA140-379; for Tm shift compared with natural ligand 2′3′-(G)(A) / Tm shift compared with reference compound 2′3′-RR-(A)(A): for all three alleles (WT, HAQ, REF)
T3 construct: DNA encoding amino acids 140-379 (amino acid numbering corresponding to Swiss Prot Q86WV6); 6xHIS (N, cleaved yes); SUMO (N, cleaved yes); made in house; host or cells: Rosetta2 (DE3) E. coli
T3 sequence (Q86WV6 140-379 H232R limits assumed): as the sequence (Q86WV6 140-379) above, with H93R counted along it
Description: as §2, §3, §4

[7] = biological target: T4, hSTING HAQ allele (Homo sapiens, UniProt Q86WV6, G230A/H232R/R293Q); experiment: Differential scanning fluorometry (DSF) binding to purified STING AA140-379, HAQ allele; conditions: ligand 1 mM, 1 mg/ml STING AA140-379
T4 construct: DNA encoding amino acids 140-379 (amino acid numbering corresponding to Swiss Prot Q86WV6); 6xHIS (N, cleaved yes); SUMO (N, cleaved yes); made in house; host or cells: Rosetta2 (DE3) E. coli
T4 sequence (Q86WV6 140-379 G230A/H232R/R293Q limits assumed): as the sequence (Q86WV6 140-379) above, with G91A, H93R, R154Q counted along it
Description: as §2, §3, §4

[8] = tested on: B16.SIY melanoma cells; experiment: B16.SIY melanoma tumor model in STING-deficient Goldenticket mice (Example 14); format: in vivo; conditions: STING-deficient GT mice; single IT injection, 100 μg
Description: as §1

[9] = tested on: B16.SIY melanoma cells; experiment: B16.SIY melanoma tumor model in WT mice (Example 14); format: in vivo, C57BL/6 (WT) mice; conditions: single IT injection, 100 μg
Description: as §1

Structure (SMILES) | EC50 [1] | safety profile compared to reference compound 2′3′-RR-(A)(A) [2] | IFNγ ELISPOT T cell responses compared to reference compound 2′3′-RR-(A)(A) ([3]; 1 μg dose) | T cell production of IFNγ in response to SIY peptide stimulation, compared to HBSS ([3]; 0.1, 1 and 10 μg doses) | tumor efficacy compared to reference compound 2′3′-RR-(A)(A) ([4]; single IT injection, 1 μg dose) | tumor regression ([4]; single IT injection, 100 μg dose) | tumor inhibition (tumor volume) compared to HBSS ([4]; single IT injection, 0.1, 1, 10 and 100 μg) | hSTING Tm Shift REF [5] | Tm shift compared with 2′3′-RR-(A)(A) and 2′3′-(G)(A) [5] | hSTING Tm Shift WT [6] | Tm shift compared with natural ligand 2′3′-(G)(A) [6] | Tm shift compared with reference compound 2′3′-RR-(A)(A) [6] | hSTING Tm Shift HAQ [7] | anti-tumor effect (tumor volume) [8] | tumor rejection (tumor volume) compared to HBSS [9]
Nc1ncnc2c1ncn2[C@@H]1O[C@@]23CO[C@@H]1[C@@H]2O[P@](=O)(S)OC[C@@]12CO[C@@H]([C@H](n4cnc5c(N)ncnc54)O1)[C@@H]2O[P@](=O)(S)OC3 [Compound 5a] | 41.6 µM | comparable safety profile | comparable T cell responses | significantly higher T cell production of IFNγ | comparable tumor efficacy as compared to the reference compound 2′3′-RR-(A)(A) | complete tumor regression | potent tumor inhibition as compared to HBSS, in a dose-dependent manner | 10.6 °C | greater Tm shift than both 2′3′-RR-(A)(A) and 2′3′-(G)(A) | 16.8 °C | greater Tm shift than the natural ligand 2′3′-(G)(A) | comparable to or greater than that of the reference compound 2′3′-RR-(A)(A) | 27.6 °C | – | –
Nc1nc2c(ncn2[C@@H]2O[C@@H]3CO[P@@](=O)(S)O[C@H]4[C@H]5OC[C@]4(CO[P@](=O)(S)O[C@@H]2[C@@H]3F)O[C@H]5n2cnc3c(N)ncnc32)c(=O)[nH]1 [Compound 15c, 2′3′-SR-(3′F-G)(2′O,4′C-LNA-A)] | – | – | – | – | – | – | – | – | – | – | – | – | – | no anti-tumor effect | complete tumor rejection
Nc1nc2c(ncn2[C@@H]2O[C@@]34CO[C@@H]2[C@@H]3O[P@](=O)(S)OC[C@H]2O[C@@H](n3cnc5c(N)ncnc53)[C@H](O)[C@@H]2O[P@](=O)(S)OC4)c(=O)[nH]1 [Compound 33a, 3′3′-RR-(A)(2′O,4′C-LNA-G)] | 30.2 µM | – | – | – | – | – | – | 11.9 °C | greater Tm shift than both 2′3′-RR-(A)(A) and 2′3′-(G)(A) | 18.36 °C | greater Tm shift than the natural ligand 2′3′-(G)(A) | comparable to or greater than that of the reference compound 2′3′-RR-(A)(A) | 29.6 °C | – | –
Nc1nc2c(ncn2[C@@H]2O[C@@]34CO[C@@H]2[C@@H]3O[P@@](=O)(S)OC[C@H]2O[C@@H](n3cnc5c(N)ncnc53)[C@H](O)[C@@H]2O[P@](=O)(S)OC4)c(=O)[nH]1 [Compound 33b, 2-amino-9-((2R,3R,3 aS,5S,7aR,9R,10R,10aS,12R,14aR)-9-(6-amino-9H-purin-9-yl)-10-hydroxy-5,12-dimercapto-5,12-dioxidohexahydro-2H,7H,14H-3,14a-(epoxymethano)difuro[3,2-d:3′,2′-j][1,3,7,9]tetraoxa[2,8]diphosphacyclododecin-2-yl)-1,9-dihydro-6H-purin-6-one] | 38 µM | – | – | – | – | – | – | 9.3 °C | greater Tm shift than both 2′3′-RR-(A)(A) and 2′3′-(G)(A) | 13.2 °C | – | comparable to or greater than that of the reference compound 2′3′-RR-(A)(A) | 19.3 °C | – | –
Nc1ncnc2c1ncn2[C@@H]1O[C@@H]2CO[P@@](=O)(S)O[C@H]3[C@H]4OC[C@]3(CO[P@@](=O)(S)O[C@@H]1[C@H]2F)O[C@H]4n1cnc2c(N)ncnc21 [Compound 37a, dithio-(RP,RP)-cyclic-[3′βF-A(2′,5′)p-2′O,4′C-LNA-A(3′,5′)p]] | 61.2 µM | – | – | – | – | – | – | 2.1 °C | – | 4.7 °C | – | – | 11.2 °C | – | –
Nc1ncnc2c1ncn2[C@@H]1O[C@@H]2CO[P@](=O)(S)O[C@H]3[C@H]4OC[C@]3(CO[P@@](=O)(S)O[C@@H]1[C@H]2F)O[C@H]4n1cnc2c(N)ncnc21 [Compound 37b, dithio-(RP,SP)-cyclic-[3′βF-A(2′,5′)p-2′O,4′C-LNA-A(3′,5′)p]] | > 150 µM | – | – | – | – | – | – | 0.5 °C | – | 1.8 °C | – | – | 6.8 °C | – | –
Nc1ncnc2c1ncn2[C@@H]1O[C@@H]2CO[P@@](=O)(S)O[C@H]3[C@H]4OC[C@]3(CO[P@](=O)(S)O[C@@H]1[C@H]2F)O[C@H]4n1cnc2c(N)ncnc21 [Compound 37c, dithio-(Sp,Rp)-cyclic-[3′βF-A(2′,5′)p-2′O,4′C-LNA-A(3′,5′)p]] | > 150 µM | – | – | – | – | – | – | 0.8 °C | – | 1.2 °C | – | – | 5.7 °C | – | –
Nc1ncnc2c1ncn2[C@@H]1O[C@@H]2CO[P@](=O)(S)O[C@H]3[C@H]4OC[C@]3(CO[P@](=O)(S)O[C@@H]1[C@H]2F)O[C@H]4n1cnc2c(N)ncnc21 [Compound 37d, dithio-(SP,SP)-cyclic-[3′βF-A(2′,5′)p-2′O,4′C-LNA-A(3′,5′)p]] | > 150 µM | – | – | – | – | – | – | −0.3 °C | – | −0.3 °C | – | – | 2.4 °C | – | –
Nc1nc2c(ncn2[C@@H]2O[C@@H]3CO[P@@](=O)(S)O[C@H]4[C@H]5OC[C@]4(CO[P@@](=O)(S)O[C@H]3[C@H]2O)O[C@H]5n2cnc3c(N)ncnc32)c(=O)[nH]1 [Compound 45a, 2-amino-9-((2R,3R,3aS,5R,7aR,9R,10R,10aS,12R,14aR)-2-(6-amino-9H-purin-9-yl)-10-hydroxy-5,12-dimercapto-5,12-dioxidohexahydro-2H,7H,14H-3,14a-(epoxymethano)difuro[3,2-d:3′,2′-j][1,3,7,9]tetraoxa[2,8]diphosphacyclododecin-9-yl)-1,9-dihydro-6H-purin-6-one] | 5.8 µM | – | – | – | – | – | – | 13.1 °C | greater Tm shift than both 2′3′-RR-(A)(A) and 2′3′-(G)(A) | 20.3 °C | greater Tm shift than the natural ligand 2′3′-(G)(A) | comparable to or greater than that of the reference compound 2′3′-RR-(A)(A) | 34.0 °C | – | –
Nc1nc2c(ncn2[C@@H]2O[C@@H]3CO[P@](=O)(S)O[C@H]4[C@H]5OC[C@]4(CO[P@@](=O)(S)O[C@H]3[C@H]2O)O[C@H]5n2cnc3c(N)ncnc32)c(=O)[nH]1 [Compound 45b, 2-amino-9-((2R,3R,3aS,5S,7aR,9R,10R,10aS,12R,14aR)-2-(6-amino-9H-purin-9-yl)-10-hydroxy-5,12-dimercapto-5,12-dioxidohexahydro-2H,7H,14H-3,14a-(epoxymethano)difuro[3,2-d:3′,2′-j][1,3,7,9]tetraoxa[2,8]diphosphacyclododecin-9-yl)-1,9-dihydro-6H-purin-6-one] | 60 µM | – | – | – | – | – | – | 7.4 °C | – | 9.4 °C | – | – | 14.7 °C | – | –
